How the values were obtained:
[1] = test system: LU99 PRMT5-041 lung tumor xenograft model; test: LU99 PRMT5-041 tumor xenograft, Example 3 (MRTX1719 with or without MRTX849); type: in vivo, mice; settings: MRTX1719 50 mg/kg PO QD, MRTX849 30 mg/kg PO QD
Protocol: (§1) Immunodeficient female nu/nu mice were implanted with 5×10^6 LU99 lung cancer cells in 50% Matrigel. Tumors were measured using calipers until they reached approximately 150-200 mm^3. Animals were randomized to receive A) vehicle (0.5% methylcellulose (4000 cps)/0.2% Tween80 in water), B) a PRMT5 inhibitor, C) KRAS^G12C inhibitor, or D) the PRMT5 inhibitor and KRAS^G12C inhibitor, all administered orally (PO) for 21 days. Tumor volume was measured twice a week (n=5/treatment group). Average tumor volume and standard error of the mean was calculated and plotted at each study day in GraphPad.

[2] = test system: SW1573 PRMT5-044 lung tumor xenograft model; test: SW1573 PRMT5-044 tumor xenograft, Example 4 (MRTX1719 with or without MRTX849); type: in vivo, mice; settings: MRTX1719 50 mg/kg PO QD, MRTX849 100 mg/kg PO QD
Protocol: as §1

[3] = test system: KRAS^G12C and CDKN2A/MTAP^DEL lung tumor xenograft LU99 model; test: LU99 lung tumor xenograft, Example 2 (MRTX7477 with or without MRTX849); settings: MRTX7477 200 mg/kg PO BID, MRTX849 30 mg/kg PO QD
Protocol: as §1

[4] = test system: KRAS^G12C and CDKN2A/MTAP^DEL lung tumor xenograft LU99 model; test: LU99 lung tumor xenograft, Example 1 (MRTX9768 with or without MRTX849); settings: MRTX9768 100 mg/kg PO BID, MRTX849 30 mg/kg PO QD
Protocol: as §1

Structure (SMILES): C=C(F)C(=O)N1CCN(c2nc(OC[C@@H]3CCCN3C)nc3c2CCN(c2cccc4cccc(Cl)c24)C3)C[C@@H]1CC#N [MRTX849]
- Tumor Volume Mean ([1]; Day 0): 154 mm^3
- Tumor Volume Mean ([1]; Day 5): 142 mm^3
- Tumor Volume Mean ([1]; Day 8): 117 mm^3
- Tumor Volume Mean ([1]; Day 12): 87 mm^3
- Tumor Volume Mean ([1]; Day 15): 81 mm^3
- Tumor Volume Mean ([1]; Day 20): 84 mm^3
- Tumor Volume Mean ([1]; Day 22): 103 mm^3
- Tumor Volume Mean ([2]; Day 0): 139 mm^3
- Tumor Volume Mean ([2]; Day 3): 150 mm^3
- Tumor Volume Mean ([2]; Day 8): 188 mm^3
- Tumor Volume Mean ([2]; Day 10): 236 mm^3
- Tumor Volume Mean ([2]; Day 14): 285 mm^3
- Tumor Volume Mean ([2]; Day 17): 320 mm^3
- Tumor Volume Mean ([2]; Day 26): 361 mm^3

Structure (SMILES): Cn1ncc(-c2ccc3c(=O)[nH]nc(CN)c3c2)c1-c1ccc2ccccc2c1C#N [MRTX7477]
- Tumor Volume ([3]; Day 1): 214.5 mm^3
- Tumor Volume ([3]; Day 5): 210.7 mm^3
- Tumor Volume ([3]; Day 8): 177.1 mm^3
- Tumor Volume ([3]; Day 12): 185.3 mm^3
- Tumor Volume ([3]; Day 15): 189.1 mm^3
- Tumor Volume ([3]; Day 19): 229.5 mm^3
- Tumor Volume ([3]; Day 21): 267.5 mm^3
- Tumor Volume ([3]; Day −2): 129.4 mm^3

Structure (SMILES): Cn1ncc(-c2ccc3c(=O)[nH]nc(CN)c3c2)c1-c1c(F)cc2ccccc2c1C#N [MRTX9768]
- Tumor Volume Mean ([4]; Day 0): 183.59 mm^3
- Tumor Volume Mean ([4]; Day 3): 265.26 mm^3
- Tumor Volume Mean ([4]; Day 7): 331.80 mm^3
- Tumor Volume Mean ([4]; Day 10): 349.53 mm^3
- Tumor Volume Mean ([4]; Day 14): 406.58 mm^3
- Tumor Volume Mean ([4]; Day 17): 431.91 mm^3
- Tumor Volume Mean ([4]; Day 21): 458.95 mm^3

From patent US12128048B2, “Combination therapies using PRMT5 inhibitors for the treatment of cancer” (Mirati Therapeutics, Inc., priority 2021, dated 2024)
